What was measured:
Format in all cases: cell-based, human
[1] = test system: HE cells; test: HE cell subculture with compounds, flow cytometry
[2] = test system: HE cells; test: Colony forming unit assay of subcultured HE cells; details: for ratio of CFU-E colonies to the sum of CFU-G, CFU-GM and CFU-M colonies: 6 days, compared to the control
Protocol: (§1) Subcultured HE cells were treated with StemPro Accutase Cell Dissociation Reagent for 2 minutes at 37° C. and dissociated cells were resuspended in 3 ml Methocult H4230 (STEMCELL Technologies, France) (prepared according to manufacturer's instructions, with 20 mL Iscove's Modified Dulbecco's Medium containing 2.5 μg hSCF, 5 μg GM-CSF, 2.5 μg IL-3 and 500 U EPO). Each mixture was divided onto 2 wells of a non-tissue culture treated 6-well plate. Following a 12-day incubation in a humidified incubator at 37° C., 5% CO2, 20% O2, colonies were morphologically distinguished and scored. For globin analysis, colonies in Methocult wells were harvested with PBS, washed thoroughly and frozen in RLT buffer with β-mercaptoethanol. Following RNA extraction and RT (Qiagen), gene expression was assessed with taqman probes by q-PCR. The taqman probes used in this study are HBA1/2 (Hs00361191_g1), HBE1 (Hs00362216_m1), HBG2/1 (Hs00361131_g1) and KLF1 (Hs00610592_m1).

[3] = test system: HE cells; test: single-cell RNAseq of treated HE cells at day 2
Protocol: Sorted HE, EHT and HSC-like cells as well magnetically selected (Miltenyi Biotec) cord blood CD34^+ cells were plated onto Matrigel (16 μg/cm^2, Corning)-coated 96-well flat bottom plates in HE medium (Ditadi, A. & Sturgeon, C. M. Methods 101, 65-72 (2016)) with 1% penicillin-streptomycin and kept in a humidified incubator at 37° C., 5% CO2, 4% O2 overnight. The following day (day 0), wells were washed twice with PBS and fresh HE medium was added, together with UK5099 (10 μM) or DCA (3 mM), where indicated. On day 1 and 2 (as indicated), cells were washed twice with PBS 0.04% UltraPure BSA and collected after a 2-minute incubation at 37° C. with StemPro Accutase Cell Dissociation Reagent. Cells were spun down, resuspended in PBS 0.04% UltraPure BSA, counted (yield between 8,000-18,000 cells) and library preparation was conducted according to the Chromium Single Cell 3′ Reagent kit v3 instructions (10× Genomics). Sequencing was performed on a NOVASeq 6000 from Illumina with the run parameters (28-8-0-91) recommended by 10× Genomics with a final loading concentration of 300 pM of the pooled libraries. Human Umbilical Cord Blood samples were collected from Skane University Hospital (Lund and Malmo) and Helsingborg Hospital with informed consents according to guidelines approved by the regional ethical committee.
The data was processed and analyzed using Seurat v3.1.0, where cells were allowed to have up to 20% mitochondrial reads prior to log-normalization and finding the top 500 variable genes using the “vst” method. Cell cycle scores were calculated and the data was scaled regressing on mitochondrial content and the difference of the S and G2M score. Principal components were calculated prior to calculating a UMAP. Pseudotime trajectories describing two developmental routes were identified in our EHT dataset using Slingshot (Street, K. et al. BMC Genomics 19, 477 (2018)) along which the cells were ordered. The cells were then binned along each trajectory where the cell-type composition of each bin was calculated as percentages. Cord blood CD34^+ cells were mapped to our data and labeled using scCoGAPS (Stein-O'Brien, G. L. et al. Cell Syst 8, 395-411.e8 (2019)). CS13 data from Zeng et al. (Zeng, Y. et al. Cell Res 1-14 (2019)) was read and processed to make a UMAP from which the cells they name as “AEC” and “Hem” were identified. These 99 cells were mapped to our data and labeled using SCMAP (Kiselev, V. Y. et al. Nat Methods 15, 359-362 (2018)). Our EHT data was mapped to data from Zeng et al. (Zeng, Y. et al. Cell Res 1-14 (2019)) and vice versa using scCoGAPS where 10 patterns were identified in each data set and then projected to each other using projectR. Each cell was assigned to the group that achieved the highest weight. An overview showing the relationship between cell-types and patterns was done by forming a contingency table on which correspondence analysis was performed using the ca package for R. Differentially expressed genes were found using the FindAllMarkers function. Cell numbers for day 1 samples are as follows: HE=1451, EHT=1523, HSC-like=732. […] All assessed endothelial and hematopoietic genes were previously used in several publications to validate the EHT process (Zhou, F. et al. Nature 533, 487-492 (2016); Swiers, G. et al. Nat Commun 4, 2924 (2013); Ng, E. S. et al. Nature Biotechnology 34, 1168-1179 (2016) and Guibentif, C. et al. Cell Reports 19, 10-19 (2017)). […]

[4] = test system: HE cells; test: GPA+ clones from single HE cells on OP9-DL1 stroma; details: of 552 single cells per condition, day 14; control 9
Source text: In some examples to further assess the effect of pyruvate manipulation on a single cell level, single HE cells were sorted onto OP9-DL1 stroma and GPA^+ clones were scored at day 14. From a total of 552 single cells per condition, 12 GPA^+ clones were detected in the UK5099-treated condition and 7 GPA^+ clones in the DCA-treated condition as compared to 9 GPA^+ clones in the control (FIG. 14, d).

[5] = test system: HE cells; test: globin transcript q-PCR in CFU colonies; details: normalized to KLF1, relative to non-treated
Protocol: as §1

[6] = 3 or 6 days of UK5099, vs untreated

Compound: O=C(O)C(Cl)Cl [DCA, dichloroacetate]
- decrease in CD43+GPA+ population ([1]; day 6 of HE subculture, DCA 3 mM): 50%
- increase in the percentage of CD43+CD45+ cells ([1]; deriving from HE, day 6, DCA 3 mM): 80%
- ratio of CFU-E colonies to the sum of CFU-G, CFU-GM and CFU-M colonies [2]: more than 3 -fold lower
- less cells in cluster 7 compared to the control ([3]; day 2, DCA 3 mM): 35%
- GPA+ clones [4]: 7

Compound: N#C/C(=C\c1cn(-c2ccccc2)c2ccccc12)C(=O)O [UK5099]
- proliferation of CD45+ cells deriving from HE ([1]; CTV, UK5099 10 μM or DCA 3 mM): did not have an effect
- frequency of HSC-like cells deriving from HE ([1]; UK5099 10 μM or DCA 3 mM): did not have an effect
- proliferation of the GPA+ population deriving from HE ([1]; day 3, CTV, UK5099 10 μM or DCA 3 mM): No differences
- HE-derived CD43+GPA+ cell output ([1]; day 3 of subculture vs control, BPTES 25 μM, UK5099 10 μM, 1-AA 4 mM, DCA 3 mM): striking increase
- levels of total CD43+ cells ([1]; day 6, treated vs untreated): unchanged
- proliferation by EdU incorporation ([1]; days 1 and 2 of subculture, 24 h pulse): no differences
- decrease in the CD43+CD45+ population ([1]; deriving from HE cells, day 6, UK5099 10 μM): 2 -fold
- erythroid colony (CFU-E) formation [2, 6]: significantly increased
- granulocyte and macrophage colonies (CFU-G, GM and M) [2, 6]: decreased
- ratio of CFU-E colonies to the sum of CFU-G, CFU-GM and CFU-M colonies [2]: 20 -fold higher
- HBA1-2 (adult globin) expression [5]: did not have an effect
- HBE1 (embryonic) globin transcripts [5]: significant increase
- HBG1-2 (fetal) globin transcripts [5]: significant increase
- expression of LSD1, GFI1 and GFI1B ([3]; UK5099-treated compared to DCA-treated cells): higher levels
- average expression levels of erythroid lineage genes (RYK, KLF3, TAL1, GATA2, ZFPM1, KLF1, NFE2, ANK1, HBQ1) ([3]; clusters 6 and 7, vs untreated HE cells): higher
- more cells in cluster 7 compared to the control ([3]; day 2, UK5099 10 μM): 38%
- percentage of cells in cluster 6 ([3]; day 2, UK5099 10 μM or DCA 3 mM): constant between conditions
- GPA+ clones [4]: 12
